The source of these data is PMC10507154 (iScience, 2023).

In assay [1] the target is T1, SquF (MaSquF) (Marinobacterium aestuarii, UniProt A0A1A9EZ66).
T1 sequence (A0A1A9EZ66 1-300): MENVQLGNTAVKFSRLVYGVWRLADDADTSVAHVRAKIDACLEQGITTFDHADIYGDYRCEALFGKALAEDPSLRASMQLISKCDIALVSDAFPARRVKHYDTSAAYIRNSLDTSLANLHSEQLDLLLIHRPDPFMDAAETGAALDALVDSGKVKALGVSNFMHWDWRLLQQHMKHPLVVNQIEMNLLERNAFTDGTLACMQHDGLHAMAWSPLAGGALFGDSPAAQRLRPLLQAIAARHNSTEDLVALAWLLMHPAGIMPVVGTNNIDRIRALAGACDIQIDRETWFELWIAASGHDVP
Description: DNPH derivatization and LC-MS of 6-dehydroglucose. The format is biochemical. The conditions noted are these: 10 mM NADP^+, 100 mM glucose, 50 mM CAPSO pH 10.0, RT; reverse reaction.

For assay [2], the target named is T1, SquF (MaSquF). Description: LC-MS of glucose. Particulars: 0.5 mM NADPH, 6-dehydroglucose generated from SQ by SqoD, RT. The format is biochemical.

As for `OC[C@H]1OC(O)[C@H](O)[C@@H](O)[C@@H]1O` (stereo partly drawn) [D-glucose], the “DNPH derivatization and LC-MS of 6-dehydroglucose” value in assay [1] is “SquF also catalyzed the reverse reaction, oxidation of glucose to 6-dehydoglucose”. `NC(=O)C1=CN([C@@H]2O[C@H](COP(=O)(O)OP(=O)(O)OC[C@H]3O[C@@H](n4cnc5c(N)ncnc54)[C@H](OP(=O)(O)O)[C@@H]3O)[C@@H](O)[C@H]2O)C=CC1` [NADPH]: the “LC-MS of glucose; NADPH consumption” value in assay [2] was “Inclusion of SquF and NADPH in the assay followed by LC-MS analysis”.
